Where two headings read alike, the source gives them in different places. Where a SMILES comes first, the peptide text is derived from it.
Columns and labels:
[1] = In vivo distribution of TAMRA-labeled SIWV peptide in healthy mice by fluorescence signal; details: tail vein injection
[2] = Passage through the blood-brain barrier, confocal microscopy of brain tissue sections; format: in vivo, mice; details: brain removed 3 hours after tail vein injection of SIWV-TAMRA
[3] = mouse, in vivo
U87MG cells [4] = experiment: Intracellular uptake in U87MG cells by confocal microscope; format: cell-based, human; details: cultured for 6 hours
Procedure: (§1) The present inventor conducted the following experiments to confirm the intracellular uptake efficiency and cytotoxicity of SIWV-pSiNP(SN-38). Specifically, U87MG cells were seeded into 96-well plates at a density of 10,000 cells/well and cultured under the conditions of 5% CO2 and 37° C. for 24 hours. Thereafter, the cells were treated with 100 μL of each of the SN-38 drug alone, pSiNPs, pSiNP(SN-38) and SIWV-pSiNP(SN-38) nanoparticles at a concentration of 6.25, 12.5, 25, 50, and 100 μM, respectively, and cultured for 6 hours. After 6 hours, in order to confirm the intracellular uptake efficiency, cell nuclei were stained by treating the cells with a 4′,6-diamino-2-phenylindole (DAPI) reagent for 10 minutes, and cell membranes were then stained by treating the cells with a CellMask™ Deep Red Plasma membrane stain reagent for 1 hour. After staining, the cells were washed three times with PBS and treated with 4% paraformaldehyde for 20 minutes to fix the cells, and then the cells were observed under a confocal microscope.

U87MG cells [5] = experiment: Cytotoxicity in U87MG cells, WST-1 cell viability; format: cell-based, human; details: 6 hours
Procedure: as §1
Meanwhile, after the cells were treated with SN-38 and each of the nanoparticles as described above and cultured for 6 hours, 10 μL of a 10% WST-1 reagent was added to each well and the cells were cultured for 2 hours. Thereafter, cell viability was analyzed by measuring the absorbance at 450 nm using a microplate reader, and the cell viability was analyzed using a relative percentage for U87MG cells not treated with nanoparticles.

With `CN(C)c1ccc2c(-c3ccccc3C(=O)[O-])c3ccc(N(C)C)cc3[o+]c2c1` [TAMRA, tetramethylrhodamine] the “time of excretion from the body” value [1] was no more than 2 h.

In the case of `CC[C@H](C)[C@H](NC(=O)[C@@H](N)CO)C(=O)N[C@@H](Cc1c[nH]c2ccccc12)C(=O)N[C@H](C(=O)O)C(C)C` [SIWV peptide] (H-SIWV-OH; N-terminus and C-terminus assumed), the “passage through the blood-brain barrier” value [2] is reported as “passed through the blood-brain barrier” and the “time of excretion from the body” value [3] is reported as 24 h.

For `CCc1c2c(nc3ccc(O)cc13)-c1cc3c(c(=O)n1C2)COC(=O)[C@]3(O)CC` [SN-38, 7-ethyl-10-hydroxy-camptothecin], the intracellular uptake (U87MG cells [4]) was “intracellular uptake did not occur”, the “cytotoxicity (toxicity of U87MG cells)” value (U87MG cells [5]; 6.5 μM) was 12.4% and the cytotoxicity (U87MG cells [5]; 100 μM) was 55.4%. For the same molecule, the “concentration dependence of toxicity” value (U87MG cells [5]; U87MG cells, 6.25 to 100 μM) was “increased toxicity as the treatment concentration was increased”.
